Test results reported in US4670540A, “Novel peptide” (Ajinomoto Co., Inc., priority 1984, dated 1987).

Experiments:
rat aortic strips = test: Spasmolytic activity in rat aortic strips; format: cell-based; conditions: aortic strips contracted with norepinephrine (5×10^-8 M); specific activity, α-hANP[1-28] = 100; mean ± standard error, number of experiments in parentheses
Protocol: (1) Spasmolytic activity in rat aortic strips. Male Sprague-Dawley rats weighing 250-280 g were used. After the rats were decapitated, their thoracic aorta were obtained and aortic helical strips were prepared. Krebs solution was used in this assay system. The aortic strips were suspended in a 20 ml organ-bath which was aerated with 5% carbon dioxide and 95% oxygen and kept at 37° ±0.5° C. The aortic tension was recorded isotonically. The isotonic recording system, consisted of a transducer and amplifier (ME commercial ME4012) and a recorder (Sanei 8K21). A resting tension of 0.5 g was loaded on the aortic strips. The prepared strips were left under the described conditions for 1 hour to obtain the stable tension. The aortic preparation contracted with norepinephrine (5×10^-8 M) was exposed to ANP to examine its relaxant activity. The dose response curve was obtained for the α-hANP(1-28) and the ANP fragment in the same preparation. The 50% effective dose (ED50) for each preparation was obtained and the ratio was used as the specific activity.

chick rectum = test: Spasmolytic activity in chick rectum; format: cell-based; conditions: rectum contracted with carbachol (2×10^-7 M); specific activity, α-hANP[1-28] = 100; mean ± standard error, number of experiments in parentheses
Protocol: (2) Spasmolytic activity in chick rectum. Male, 2- to 3-week-old chicks weighing 155-175 g were used. After the chicks were anesthetized with pentobarbital (6 mg/kg, ip), their rectums were excised. Krebs solution was used. The rectums were suspended in 20 ml organ-bath aerated with 5% carbon dioxide and 95% oxygen and kept at 37° ±0.5° C. Contractile tension of the rectum was determined isotonically. The isotonic recording system used was the same as that used in testing the rat aortic preparations. The rectal preparations were stabilized by keeping them under 0.5 g of tension conditions for 1 hour. The rectal preparations contracted with carbachol (2×10^-7 M),were exposed to ANP to examine its relaxing effect. As with the rat aortic preparations, ED50 for the standard α-haNP(1-28) and for the ANP fragment were determined, and the specific activity were calculated.

Molecule	Spasmolytic Activity in Rat Aorta (ratio of ED50 to the standard hANP (1-28)) (rat aortic strips)	Spasmolytic Activity in Chick Rectum (ratio of ED50 to the standard hANP (1-28)) (chick rectum)
CC[C@H](C)[C@@H]1NC(=O)[C@H](CCCNC(=N)N)NC(=O)[C@H](CC(=O)O)NC(=O)[C@H](CCSC)NC(=O)[C@H](CCCNC(=N)N)NC(=O)CNC(=O)CNC(=O)[C@H](Cc2ccccc2)NC(=O)[C@@H](NC(=O)[C@H](CO)NC(=O)[C@H](CO)NC(=O)[C@H](CCCNC(=N)N)NC(=O)[C@H](CCCNC(=N)N)NC(=O)[C@H](CC(C)C)NC(=O)[C@@H](N)CO)CSSC[C@@H](C(=O)N[C@@H](CC(N)=O)C(=O)N[C@@H](CO)C(=O)N[C@@H](Cc2ccccc2)C(=O)N[C@@H](CCCNC(=N)N)C(=O)N[C@@H](Cc2ccc(O)cc2)C(=O)O)NC(=O)CNC(=O)[C@H](CC(C)C)NC(=O)CNC(=O)[C@H](CO)NC(=O)[C@H](CCC(N)=O)NC(=O)[C@H](C)NC(=O)CNC1=O [α-hANP[1-28], α-human atrial natriuretic peptide]	100	100
(Nle^12)α-hANP(1-28) [[Nle^12]-α-hANP[1-28]]	80.5 ± 12.2	70.3 ± 10.9
